Source: US7947741B2, “Use and administration of bacterial efflux pump inhibitors” (Mpex Pharmaceuticals, Inc., priority 2004, dated 2011)
≈ marks a conversion by molar mass, not a printed value. Like-named read-outs stand apart in the source and are kept apart here.

Key:
[1] = system: P. aeruginosa PAM1020 (wt, basal level of MexAB-OprM); assay: Levofloxacin potentiation checkerboard assay (broth microdilution); type: cell-based, Pseudomonas aeruginosa
Procedure: (§1) Stock solutions were further diluted, according to the needs of a particular assay, in Mueller Hinton Broth (MHB). Stock solution was stored at −80° C.
(§2) The checkerboard assay was performed in microtiter plates. […] The result of these manipulations is that each well of the microtiter plate contains a unique combination of concentrations of the two agents. The assay was performed in MHB with a final bacterial inoculum of 5×10^5 CFU/ml (from an early-log phase culture). Microtiter plates were incubated during 20 h at 35° C. and were read using a microtiterplate reader (Molecular Devices) at 650 nm as well as visual observation using a microtiter plate reading mirror.
(§3) The test organisms used was PAM1020, which is a wild type strain of P. aeruginosa expressing the basal level of MexAB-OprM, as well as PAM1723, PAM1738, and PAM1753, overexpressing the MexAB-OprM, MexCD-OprJ, and MexEF-OprN pump, respectively.

[2] = system: P. aeruginosa PAM1753 (nfxC, overexpressing MexEF-OprN); assay: as above; type: cell-based, Pseudomonas aeruginosa; settings: for Levofloxacin MIC in the presence of inhibitor: PAM1753
Procedure: as §1, §2, §3

[3] = system: P. aeruginosa PAM1626 (lacks all the three efflux pumps); assay: microbe, parasite or virus in culture; type: cell-based, Pseudomonas aeruginosa; settings: for Levofloxacin MIC in the presence of inhibitor: PAM1626
[4] = system: P. aeruginosa PAM2281 (MexAB-OprM, MexEF-OprN); assay: microbe, parasite or virus in culture; type: cell-based, Pseudomonas aeruginosa; settings: PAM2281
Procedure: (§4) A set of strains that simultaneously over-expressed pairs or triplicates of pumps, e.g. PAM2302 and PAM2303 was tested. Simultaneous over-expression of efflux pumps has been recently detected in clinical strains.

[5] = system: P. aeruginosa PAM2302 (MexAB-OprM, MexCD-OprJ, MexEF-OprN); assay: microbe, parasite or virus in culture; type: cell-based, Pseudomonas aeruginosa; settings: PAM2302
Procedure: as §4

[6] = system: P. aeruginosa PAM2466 (MexAB-OprM, MexXY-OprM); assay: microbe, parasite or virus in culture; type: cell-based, Pseudomonas aeruginosa; settings: PAM2466
Procedure: as §4

PAM1723 cells = assay: EtBr uptake (proton gradient disruption); type: cell-based, Pseudomonas aeruginosa; settings: CCCP 50 μg/ml for 15 minutes, pentamidine 80 μg/ml
Procedure: A proton gradient is necessary for efflux pump activity. Accordingly, compounds that are capable of proton gradient disruption will appear as efflux inhibitors in accumulation assays. This possibility was tested for pentamidine. EtBr is a substrate of the MexAB-OprM efflux pump from P. aeruginosa as evident from the differential rates of its uptake in PAM 1723 and PAM 1626, MexAB-OprM overexpressing or lacking strains, respectively. CCCP is a well-known protonophore, which rapidly dissipates the proton gradient.

[7] = for AUC (0-4)/AUC (0-168) / AUC (0-8)/AUC (0-168) / AUC (0-24)/AUC (0-168) / Ke (β): CF sputum, high dose, Mean; for Ke (β): β phase
Pneumocystis carini = settings: cited from earlier work
[8] = isethionate salt; cited from earlier work
[9] = system: outer membrane of P. aeruginosa strain PAM2005; assay: microbe, parasite or virus in culture; settings: Pseudomonas aeruginosa, read-out: IC50, permeabilization of the outer membrane
[10] = Pseudomonas aeruginosa, read-out: MIC* (MIC for the efflux pump inhibitor)

N=C(N)c1ccc(OCCCCCOc2ccc(C(=N)N)cc2)cc1 [Pentamidine, pentamidine]
decrease of levofloxacin MIC ([1]; PAM1020 (wild type), pentamidine at 20 μg/ml): 8 fold | Levofloxacin MIC in the presence of inhibitor ([1]; PAM1020, inhibitor 1.25 μg/ml): 0.25 µg/mL | Levofloxacin MIC in the presence of inhibitor ([1]; PAM1020, inhibitor 2.5 μg/ml): 0.25 µg/mL | Levofloxacin MIC in the presence of inhibitor ([1]; PAM1020, inhibitor 5 μg/ml): 0.125 µg/mL | Levofloxacin MIC in the presence of inhibitor ([1]; PAM1020, inhibitor 10 μg/ml): 0.06 µg/mL | Levofloxacin MIC in the presence of inhibitor ([1]; PAM1020, inhibitor 20 μg/ml): 0.03 µg/mL | Levofloxacin MIC in the presence of inhibitor ([1]; PAM1020, inhibitor 40 μg/ml): 0.015 µg/mL | MIC ([1]; Pseudomonas aeruginosa, PAM1020, inhibitor alone, read-out: MIC* (MIC for the efflux pump inhibitor)): 80 µg/mL | Levofloxacin MIC in the presence of inhibitor ([2]; inhibitor 1.25 μg/ml): 2 µg/mL | Levofloxacin MIC in the presence of inhibitor ([2]; inhibitor 2.5 μg/ml): 2 µg/mL | Levofloxacin MIC in the presence of inhibitor ([2]; inhibitor 5 μg/ml): 2 µg/mL | Levofloxacin MIC in the presence of inhibitor ([2]; inhibitor 10 μg/ml): 1 µg/mL | Levofloxacin MIC in the presence of inhibitor ([2]; inhibitor 20 μg/ml): 0.25 µg/mL | MIC [2, 10]: 40 µg/mL | Levofloxacin MIC in the presence of inhibitor ([3]; inhibitor 1.25 μg/ml): 0.007 µg/mL | Levofloxacin MIC in the presence of inhibitor ([3]; inhibitor 2.5 μg/ml): 0.007 µg/mL | Levofloxacin MIC in the presence of inhibitor ([3]; inhibitor 5 μg/ml): 0.007 µg/mL | decrease in levofloxacin MIC ([3]; PAM1626 lacking efflux pumps): Almost no decrease | MIC [3, 10]: 10 µg/mL (≈ 29.4 µM) | Ciprofloxacin MIC w/pentamidine at 20 μg/ml [4]: 0.25 µg/mL | Levofloxacin MIC w/pentamidine at 20 μg/ml [4]: 0.25 µg/mL | Ciprofloxacin MIC w/pentamidine at 20 μg/ml [5]: 0.25 µg/mL | Levofloxacin MIC w/pentamidine at 20 μg/ml [5]: 0.25 µg/mL | Ciprofloxacin MIC w/pentamidine at 20 μg/ml [6]: 0.06 µg/mL | Levofloxacin MIC w/pentamidine at 20 μg/ml [6]: 0.125 µg/mL | EtBr uptake (PAM1723 cells): did not result in increased EtBr uptake | AUC (0-4)/AUC (0-168) ([7]; Aerogen Clinical): 46% | AUC (0-8)/AUC (0-168) ([7]; Aerogen Clinical): 61% | AUC (0-24)/AUC (0-168) ([7]; Aerogen Clinical): 77% | Ke (β) ([7]; Aerogen Clinical): 0.070 h⁻¹ | AUC (0-4)/AUC (0-168) ([7]; Respirgard II): 30% | AUC (0-8)/AUC (0-168) ([7]; Respirgard II): 41% | AUC (0-24)/AUC (0-168) ([7]; Respirgard II): 66% | Ke (β) ([7]; Respirgard II): 0.074 h⁻¹ | AUC (0 to 168) ([7]; human, in vivo): 57000 ng·h/mL | AUC (0 to infinity) ([7]; human, in vivo): 57000 ng·h/mL | AUC (0 to last non-BLQ) ([7]; human, in vivo): 56000 ng·h/mL | Tmax (0 to 168) ([7]; human, in vivo): 2.3 h | high-dose β-phase elimination half-life (sputum) ([7]; human, in vivo): between one and two days | In vitro inhibitory activity (Pneumocystis carini): 0.3 µg/mL | solubility [8]: soluble in water and glycerin and insoluble in ether, acetone, and chloroform | IC50 [9]: > 64 µg/mL
